From US9629364B2, “Synergistic weed control from applications of aminopyralid and clopyralid” (Dow AgroSciences LLC, priority 2012, dated 2017)
Counter-ions that a name gives are not always drawn.

Test system: black nightshade (Solanam nigram)
Test: Field trial, post-emergence foliar application, weed control rating 0-100%
Type: in vivo
Details: SOLNI, 56 days after first application, with 0.5 L/ha ACTIROB
From the text: The (a) aminopyralid or an agriculturally acceptable salt or ester thereof is mixed with or applied in combination with (b) clopyralid or an agriculturally acceptable salt or ester thereof in an amount sufficient to induce a synergistic herbicidal effect. […] As described in the Herbicide Handbook of the Weed Science Society of America, Ninth Edition, 2007, p. 429, “‘synergism’ [is] an interaction of two or more factors such that the effect when combined is greater than the predicted effect based on the response to each factor applied separately.” Synergistic in the herbicide context can mean that the use of (a) and (b) as defined above results in an increased weed control effect compared to the weed control effects that are possible with the use of (a) or (b) alone. In some embodiments, the damage or injury to the undesired vegetation caused by the compositions and methods disclosed herein is evaluated using a scale from 0% to 100%, when compared with the untreated control vegetation, wherein 0% indicates no damage to the undesired vegetation and 100% indicates complete destruction of the undesired vegetation. […] 22 (1967) […]
Colby's equation was used to determine the herbicidal effects expected from the mixtures, as described above. The results were measured at 56 days after the first application of the compositions. […]

SMILES | Mean % weed control (90 g ae/ha applied alone) | Mean % weed control (1 g ae/ha applied alone)
O=C(O)c1nc(Cl)ccc1Cl [Clopyralid-olamine, 3,6-dichloro-2-pyridinecarboxylic acid] | 37.5% | 
Nc1cc(Cl)nc(C(=O)O)c1Cl [Aminopyralid Potassium Salt, 4-amino-3,6-dichloro-2-pyridinecarboxylic acid] |  | 0%
